These results are taken from article PMC8896685 (PLoS ONE, 2022).

Assay [1] concerns the target T1, Rat GCGR (Rattus norvegicus, UniProt P30082).
T1 construct: a plasmid encoding either the glucagon receptor or the GLP-1 receptor from the relevant species; expressed in transfected cells
Put plainly: Receptor binding, SPA competitive binding assay. The conditions noted are these: SPA competitive binding on BHK cell membranes, [125I]-glucagon tracer, 1% species specific plasma, 2 h 30°C; value (95% CI). The protocol:
The binding assay was performed on cell membranes in the presence of 1% (v/v) species-specific heparin-treated pooled plasma (Bioreclamation IVT, Westbury, NY) diluted in assay buffer (50 mM HEPES supplemented with 5 mM EGTA, 5 mM MgCl2, and 0.005% (v/v) Tween 20, pH7.4). […] Cells stably expressing an individual receptor of interest were grown at 5% CO2, 37°C in DMEM (supplemented with 10% FCS, 0.5 mg/ml G418 and 0.3 mg/ml hygromycin). Membrane preparations were made from cells harvested at approximately 80% confluence, washed and homogenized in 20 mM HEPES with 0.1 mM EDTA, pH 7.4. Protein concentration was determined, and the membranes were stored at -80°C until use. The membrane binding assay was performed in a 96-well OptiPlate (PerkinElmer) in a total volume of 200 μl. Test compounds were dissolved in 80% DMSO and further diluted in assay buffer. 50 μl of diluted plasma was added to the assay plate wells followed by addition of test compounds (25 μl), cell membranes (50 μl, 0.06 mg/ml), SPA beads (20 mg/ml in assay buffer) and radioligand (60,000 cpm/well, corresponding to 0.06 nM; 2200 Ci/mmol. Each assay plate was incubated for 2 h at 30°C, centrifuged at 1500 rpm for 10 minutes and counted in a TopCount NXT instrument (PerkinElmer).
For the receptor binding assays, logIC50 values were calculated using non-linear regression analysis. The error estimation was reported as the 95% confidence interval. […] The calculations were performed in GraphPad Prism 6.4 (GraphPad, San Diego, CA) and error estimation was expressed as the 95% confidence interval. […] Averages, error estimation, ratios and plasma shifts were all calculated on logIC50 or logEC50 values and transformed to the anti-log values for reporting purposes.

Assay [2] relates to DIO mice. Put plainly: Subchronic effect on glucose tolerance in DIO mice (IPGTT at steady state). The assay is classed as in vivo, mouse. The conditions noted are these: steady state; for Glucose tolerance (IPGTT) vs vehicle: p<0.001. The protocol: Compound exposure was measured by Luminescence Oxygen Channeling Immunoassay (LOCI). […] The three reactants were combined with the analyte and formed a two-sited immuno-complex. Illumination of the complex released singlet oxygen […] from the donor beads. They were channeled into the acceptor beads and triggered a chemiluminescence response which was measured in an EnVision plate reader (PerkinElmer). The amount of light was proportional to the concentration of the analyte. As calibrators, a dilution line of the relevant analyte in rat/mouse plasma was included.
Animals were fasted for 5–6 h prior to intraperitoneal (i.p.) injection of 2 g/kg glucose. Blood glucose was analysed on whole blood from the tail vein of conscious animals using a Biosen S-line glucose analyzer (EKF-diagonistic Gmbh, Barleben, Germany) by the glucose oxidase method, at basal and at t = 15, 30, 60, 90, 180 min post glucose administration.
DIO mice received s.c. injections once daily for 4–5 weeks. Animals were dosed at different times of day to allow for assessment of glucose tolerance and other metabolic parameters at same time of day but at different time points in relation to dosing. […] Body composition was assessed in conscious animals by Magnetic Resonance (MR) scanning prior to initiation of treatment and at the end of the treatment period. Steady-state plasma parameters were assessed in non-fasted animals. Additional DIO mice (n = 4) were included for verification of 24-h peptide exposure in steady state. The mice received s.c. doses daily for 2 weeks (13 days) with 3 nmol/kg NN1177; 5 nmol/kg NN1151 or 5 nmol/kg NN1359, where after plasma sampled after t = 5 h (NN1177) or 6 h (NN1151, NN1359), 10 h (all co-agonists) and 24 h (all co-agonists) post-dosing was analysed for exposure.
Analogues were tested for subchronic effect in two different set-ups. […] The Cmax and Cmin animals were included in separate treatment groups and evaluated head-to-head for glucose tolerance and additional metabolic parameters at the end of the treatment period. […] IPGTT was performed as described above, but additionally blood was sampled from vena facialis of conscious animals at t = 210 min relative to the administration of glucose for exposure analysis.
IPGTT was performed as described above.

Assay [3] deals with T2, Mouse GLP-1R (Mus musculus, UniProt O35659).
T2 construct: a plasmid encoding either the glucagon receptor or the GLP-1 receptor from the relevant species; expressed in transfected cells
T2 sequence (O35659 22-463): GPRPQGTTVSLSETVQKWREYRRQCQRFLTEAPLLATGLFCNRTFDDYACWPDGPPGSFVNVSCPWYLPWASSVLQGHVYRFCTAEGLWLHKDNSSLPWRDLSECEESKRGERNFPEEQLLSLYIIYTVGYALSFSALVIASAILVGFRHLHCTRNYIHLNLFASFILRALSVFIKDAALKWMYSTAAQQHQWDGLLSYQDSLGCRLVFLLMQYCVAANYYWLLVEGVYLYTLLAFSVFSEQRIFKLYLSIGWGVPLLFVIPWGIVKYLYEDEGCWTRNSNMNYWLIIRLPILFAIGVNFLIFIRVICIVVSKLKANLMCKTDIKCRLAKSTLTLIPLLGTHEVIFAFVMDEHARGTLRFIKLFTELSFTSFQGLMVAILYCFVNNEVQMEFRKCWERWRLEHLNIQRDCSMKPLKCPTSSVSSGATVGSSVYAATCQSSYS
Put plainly: Receptor potency, CRE-luciferase functional assay in BHK cells. The assay is classed as cell-based. The conditions noted are these: GLP-1R EC50, pM (95% CI) 100% plasma, Mouse receptors, whole BHK cells, 100% species-specific plasma, 3 h 37°C, value (95% CI).

The mark [4] stands for this setting: after 4 weeks daily s.c. dosing, Cmin (24 h post dosing).

Numbered stars: 1 amine (or outer) side, 2 acyl side, 3 side chain; on linkers, the order of the positions; unused ones are H or OH. Square brackets hold non-standard residues; d marks the D form. Side chains are listed from the residue outwards. Peptide text beside a SMILES is read from it. * marks the point of attachment. C18 diacid = O=C(O)CCCCCCCCCCCCCCCCC(=O)*; γGlu = O=C(O)[C@H](CCC(=O)[*:2])N[*:1]; Desaminohistidyl = O=C(CCc1c[nH]cn1)*; AEEA = NCCOCCOCC(=O)O; Aib = CC(C)(N)C(=O)O

T1 sequence (P30082 27-485): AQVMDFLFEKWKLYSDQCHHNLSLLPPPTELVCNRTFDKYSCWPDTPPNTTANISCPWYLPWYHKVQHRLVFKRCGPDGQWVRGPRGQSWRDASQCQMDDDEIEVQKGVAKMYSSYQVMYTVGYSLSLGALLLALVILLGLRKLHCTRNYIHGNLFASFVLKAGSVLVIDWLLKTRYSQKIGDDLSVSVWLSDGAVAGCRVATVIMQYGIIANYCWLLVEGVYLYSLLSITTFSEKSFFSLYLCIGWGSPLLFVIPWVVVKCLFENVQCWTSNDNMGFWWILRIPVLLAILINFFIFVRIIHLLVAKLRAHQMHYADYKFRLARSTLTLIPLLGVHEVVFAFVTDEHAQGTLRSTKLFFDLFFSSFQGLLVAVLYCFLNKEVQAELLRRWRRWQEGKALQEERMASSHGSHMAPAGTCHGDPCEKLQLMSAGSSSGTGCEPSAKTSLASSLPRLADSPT

The IC50 is the concentration that inhibits the measured activity by half. Low readings indicate greater potency, high ones weaker potency. In general, EC50 refers to the midpoint of the concentration-response curve. A high value points to a need for much substance. The compound `CC[C@H](C)[C@H](NC(=O)[C@H](Cc1ccccc1)NC(=O)[C@H](CCC(=O)O)NC(=O)[C@H](CCCNC(=N)N)NC(=O)[C@H](C)NC(=O)[C@H](C)NC(=O)[C@H](CCC(N)=O)NC(=O)[C@H](CCC(=O)O)NC(=O)[C@H](CCC(=O)O)NC(=O)[C@H](CC(C)C)NC(=O)[C@H](Cc1ccc(O)cc1)NC(=O)[C@H](CCCCN)NC(=O)[C@H](CO)NC(=O)[C@@H](NC(=O)[C@H](CC(=O)O)NC(=O)[C@H](CO)NC(=O)[C@@H](NC(=O)[C@H](Cc1ccccc1)NC(=O)[C@@H](NC(=O)CNC(=O)[C@H](Cc1c[nH]cn1)NC(=O)C(C)(C)NC(=O)CCc1c[nH]cn1)[C@@H](C)O)[C@@H](C)O)C(C)C)C(=O)N[C@@H](C)C(=O)N[C@@H](Cc1c[nH]c2ccccc12)C(=O)N[C@@H](CC(C)C)C(=O)N[C@@H](CC(C)C)C(=O)N[C@@H](CCCCNC(=O)COCCOCCNC(=O)COCCOCCNC(=O)CC[C@H](NC(=O)CC[C@H](NC(=O)CCCCCCCCCCCCCCCCC(=O)O)C(=O)O)C(=O)O)C(=O)N[C@H](C(N)=O)[C@@H](C)O` [NN1359] (Desaminohistidyl-[Aib]HGTFTSDVSKYLEEQAAREFIAWLLK([AEEA-AEEA-γGlu-γGlu-C18 diacid])T-NH2) registered a half-maximal inhibitory concentration (IC50) in assay [1] of 6.29 nM. Besides, the “Glucose tolerance (IPGTT) vs vehicle” value in assay [2] (after 3 weeks daily s.c. dosing, Cmax (5 h post dosing)) is “significantly improved”. In assay [2] (setting [4]), the “Basal blood glucose vs vehicle” value is listed as “significantly improved” and the “Glucose tolerance (IPGTT) vs vehicle” value is given as “significantly improved”. Besides, the EC50 in assay [3] was found to be 95.3 pM.
